Measurements published in the supplement of paper PMC10883282.

What was measured:
Experiment in all cases: relative viability vs DMSO control (72 h) (fraction); higher = more viable cells
[1] = system: A204
Outline: (§1)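 Sarcoma cell lines were grown in 384-well plates seeded toward 80–90% confluence and exposed 24 h later to serially diluted compound. After 72 h at 37 °C and 5% CO2, with 0.1% DMSO vehicle and a 5 µM positive control on the plates, ATPLite was read. Relative viability, given as percent growth averaged over up to triplicate wells, was rescaled so that 1 is full and 0 is none.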

[2] = system: HS729
Outline: as §1

[3] = system: KHOS-240S
Outline: as §1

[4] = system: SW982
Outline: as §1

[5] = system: SYO-1
Outline: as §1

Cc1cc2cc(Oc3ccnc(Nc4cccc(CS(=O)(=O)NCCN(C)C)c4)n3)ccc2[nH]1 [Sulfatinib]
relative viability
Conditions | [1] | [2] | [3] | [4] | [5]
0.00017 µM | 1.09 | 0.983 | 1.02 | 1.04 | 0.943
0.00051 µM | 1.08 | 0.993 | 1.02 | 1.04 | 0.962
0.00152 µM | 1.08 | 0.979 | 1.02 | 1.05 | 0.945
0.00457 µM | 1.05 | 0.9 | 1.03 | 1.06 | 0.938
0.01372 µM | 1.07 | 0.939 | 1.05 | 1.04 | 0.9
0.04115 µM | 1.02 | 0.872 | 1.02 | 1.03 | 0.865
0.1235 µM | 1.01 | 0.877 | 1.012 | 1.06 | 0.805
0.3704 µM | 0.878 | 0.843 | 0.961 | 1.02 | 0.607
1.111 µM | 0.536 | 0.768 | 0.936 | 0.971 | 0.423
3.333 µM | 0.283 | 0.629 | 0.741 | 0.719 | 0.341
10 µM | 0.136 | 0.49 | 0.382 | 0.226 | 0.105

CCN(CC)CCNC(=O)c1c(C)[nH]c(/C=C2\C(=O)Nc3ccc(F)cc32)c1C [Sunitinib]
relative viability
Conditions | [1] | [2] | [3] | [4] | [5]
0.00017 µM | 1.06 | 0.928 | 1.06 | 1.06 | 0.952
0.00051 µM | 1.03 | 0.877 | 1.06 | 1.07 | 0.9234
0.00152 µM | 1.01 | 0.835 | 1.05 | 1.07 | 0.886
0.00457 µM | 0.96 | 0.819 | 1.05 | 1.05 | 0.813
0.01372 µM | 0.795 | 0.799 | 1.04 | 1.05 | 0.706
0.04115 µM | 0.516 | 0.761 | 1.03 | 1.07 | 0.665
0.1235 µM | 0.425 | 0.731 | 0.958 | 1.02 | 0.601
0.3704 µM | 0.363 | 0.68 | 0.875 | 0.716 | 0.494
1.111 µM | 0.318 | 0.518 | 0.655 | 0.413 | 0.406
3.333 µM | 0.206 | 0.268 | 0.204 | 0.0113 | -0.00767
10 µM | 0.00297 | 0.0045 | 0.0104 | 0.00423 | -0.00903

Cn1ncnc1[C@H]1c2n[nH]c(=O)c3cc(F)cc(c23)N[C@@H]1c1ccc(F)cc1 [Talazoparib]
relative viability
Conditions | [1] | [2] | [3] | [4] | [5]
0.00017 µM | 0.9664 | 1.05 | 0.9825 | 0.911 | 0.974
0.00051 µM | 0.987 | 1.05 | 1.01 | 0.906 | 0.961
0.00152 µM | 0.963 | 1.03 | 0.982 | 0.904 | 0.885
0.00457 µM | 0.932 | 1.02 | 0.969 | 0.862 | 0.743
0.01372 µM | 0.906 | 1.02 | 0.948 | 0.785 | 0.582
0.04115 µM | 0.846 | 1.03 | 0.921 | 0.729 | 0.466
0.1235 µM | 0.715 | 0.961 | 0.872 | 0.615 | 0.336
0.3704 µM | 0.674 | 0.949 | 0.824 | 0.602 | 0.193
1.111 µM | 0.576 | 0.895 | 0.677 | 0.499 | 0.081
3.333 µM | 0.519 | 0.8536 | 0.524 | 0.409 | 0.0279
10 µM | 0.399 | 0.812 | 0.457 | 0.361 | 0.0191

O=c1sn(-c2cccc3ccccc23)c(=O)n1Cc1ccccc1 [Tideglusib]
relative viability
Conditions | [1] | [2] | [3] | [4] | [5]
0.00017 µM | 1.09 | 1.1 | 1.05 | 1.07 | 1.01
0.00051 µM | 1.131 | 1.07 | 1.07 | 1.09 | 0.987
0.00152 µM | 1.12 | 1.07 | 1.09 | 1.08 | 0.999
0.00457 µM | 1.12 | 1.04 | 1.07 | 1.11 | 0.97
0.01372 µM | 1.14 | 1.03 | 1.08 | 1.11 | 0.956
0.04115 µM | 1.11 | 1 | 1.07 | 1.11 | 0.944
0.1235 µM | 1.12 | 0.972 | 1.07 | 1.1 | 0.949
0.3704 µM | 1.12 | 0.956 | 1.06 | 1.09 | 0.953
1.111 µM | 1.134 | 0.908 | 1.03 | 1.068 | 0.969
3.333 µM | 1.1 | 0.933 | 1.01 | 1.08 | 0.944
10 µM | 1.07 | 0.861 | 0.993 | 1.05 | 0.891

O=C1NC(=O)[C@@H](c2cn3c4c(cccc24)CCC3)[C@@H]1c1c[nH]c2ccccc12 [Tivantinib]
relative viability
Conditions | [1] | [2] | [3] | [4] | [5]
0.00017 µM | 1.08 | 0.901 | 1.03 | 1.05 | 0.934
0.00051 µM | 1.05 | 0.924 | 1.03 | 1.04 | 0.928
0.00152 µM | 1.09 | 0.917 | 1.05 | 1.04 | 0.95
0.00457 µM | 1.11 | 0.899 | 1.04 | 1.07 | 0.924
0.01372 µM | 1.1 | 0.916 | 1.05 | 1.06 | 0.911
0.04115 µM | 1.07 | 0.865 | 1.01 | 1.04 | 0.894
0.1235 µM | 1.06 | 0.864 | 0.983 | 1.03 | 0.861
0.3704 µM | 1.05 | 0.862 | 0.791 | 0.766 | 0.716
1.111 µM | 0.455 | 0.599 | 0.271 | 0.378 | 0.327
3.333 µM | 0.439 | 0.621 | 0.25 | 0.272 | 0.271
10 µM | 0.331 | 0.564 | 0.176 | 0.2611 | 0.28
